Several values for one entry are separate records, joined by “and”; a condition that tells them apart may be missing. Identical values can stand only once. Toxic doses and inconclusive results are not listed. How the source made its calls: active means survival T/C of 150% or more; inactive means T/C below 125% in these data.
Test system: P388 leukemia ip, CD2F1 mice, survival T/C
Assay: NCI In Vivo Anticancer Drug Screen. Data for tumor model P388 Leukemia (intraperitoneal) in CD2F1 (CDF1) mice
Conditions: endpoint: median survival time, higher = longer survival
Method in brief: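 Mice carrying the transplanted tumor received test compound or vehicle. Survival was recorded in each group, and the value is the treated-group measurement divided by that of the vehicle-treated control group.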

[1] = dose: 15.0 mg/kg/injection, schedule: Q01DX005 (ip), vehicle: saline with Tween-80
[2] = dose: 30.0 mg/kg/injection, schedule: Q01DX005 (ip), vehicle: saline with Tween-80
[3] = dose: 60.0 mg/kg/injection, schedule: Q01DX005 (ip), vehicle: saline with Tween-80
[4] = dose: 75.0 mg/kg/injection, schedule: Q01DX001 (ip), vehicle: saline with Tween-80
[5] = dose: 150.0 mg/kg/injection, schedule: Q01DX001 (ip), vehicle: saline with Tween-80
[6] = dose: 100.0 mg/kg/injection, schedule: Q04DX002 (ip), vehicle: saline with Tween-80
[7] = dose: 200.0 mg/kg/injection, schedule: Q04DX002 (ip), vehicle: saline with Tween-80

Measured: T/C

CN1C(=O)n2c(nc3ccccc32)C(N=[N+]=[N-])(N=[N+]=[N-])C1=O (stereo unspecified)
inactive: [1] 108 % of control | [2] 101 % of control | [3] 101 % of control and 110 % of control

CC(C)c1cc(N(C)C)cc(=S)[nH]1
inactive: dose: 50.0 mg/kg/injection, schedule: Q01DX005 (ip), vehicle: saline 104 % of control | dose: 100.0 mg/kg/injection, schedule: Q01DX005 (ip), vehicle: saline 94 % of control | dose: 200.0 mg/kg/injection, schedule: Q01DX005 (ip), vehicle: saline 102 % of control

N#CC12c3ccccc3C(c3ccccc31)C1C(=O)C=CC(=O)C12 (stereo unspecified)
inactive: dose: 12.5 mg/kg/injection, schedule: Q01DX009 (ip), vehicle: saline 111 % of control | dose: 25.0 mg/kg/injection, schedule: Q01DX009 (ip), vehicle: saline 106 % of control | dose: 50.0 mg/kg/injection, schedule: Q01DX009 (ip), vehicle: saline 92 % of control and 96 % of control

O=c1c(O)c(O)c1=O.[NH2-].[NH2-].[NH2-].[NH2-].[NH2-].[Ru+5]
inactive: dose: 10.56 mg/kg/injection, schedule: Q04DX002 (ip), vehicle: suspension in saline 121 % of control

CN1C(=O)CN=C(c2ccccn2)c2cc(Cl)ccc21
inactive: [4] 104 % of control | [5] 104 % of control | dose: 300.0 mg/kg/injection, schedule: Q01DX001 (ip), vehicle: saline with Tween-80 104 % of control

C1=C(c2ccccc2)N2CCCNC2(c2ccccc2)CS1 (stereo unspecified)
inactive: [6] 90 % of control | [7] 90 % of control | dose: 400.0 mg/kg/injection, schedule: Q04DX002 (ip), vehicle: saline with Tween-80 88 % of control

BrC1(Br)C2CC3C(CC21)C3(Br)Br (stereo unspecified)
inactive: dose: 37.5 mg/kg/injection, schedule: Q01DX001 (ip), vehicle: saline with Tween-80 100 % of control | [4] 109 % of control | [5] 100 % of control

O=C(OC1CC2CCC(C1)S2)c1ccco1 (stereo unspecified)
inactive: dose: 50.0 mg/kg/injection, schedule: Q04DX002 (ip), vehicle: saline with Tween-80 109 % of control | [6] 109 % of control | [7] 110 % of control

CC(=O)OC1C=C2C(=O)OCC2(O)C2(C)CCCC(C)(C)C12 (stereo unspecified)
inactive: dose: 3.12 mg/kg/injection, schedule: Q01DX009 (ip), vehicle: other 102 % of control | dose: 6.25 mg/kg/injection, schedule: Q01DX009 (ip), vehicle: other 100 % of control | dose: 12.5 mg/kg/injection, schedule: Q01DX009 (ip), vehicle: other 102 % of control

Cc1cc(=O)[nH]c2cc3oc4ccccc4c3cc12
inactive: [3] 98 % of control | dose: 120.0 mg/kg/injection, schedule: Q01DX005 (ip), vehicle: saline with Tween-80 102 % of control | dose: 240.0 mg/kg/injection, schedule: Q01DX005 (ip), vehicle: saline with Tween-80 103 % of control

O=C(Cc1cccc(CC(=O)c2ccccc2)n1)c1ccccc1
inactive: [1] 108 % of control | [2] 92 % of control | [3] 92 % of control and 93 % of control

CCSc1nc(Cl)cc(Sc2nc(N)nc3nc[nH]c23)n1
inactive: dose: 12.0 mg/kg/injection, schedule: Q01DX009 (ip), vehicle: saline with Tween-80 90 % of control | dose: 18.0 mg/kg/injection, schedule: Q01DX009 (ip), vehicle: saline with Tween-80 90 % of control | dose: 26.0 mg/kg/injection, schedule: Q01DX009 (ip), vehicle: saline with Tween-80 100 % of control | dose: 40.0 mg/kg/injection, schedule: Q01DX009 (ip), vehicle: saline with Tween-80 104 % of control | dose: 60.0 mg/kg/injection, schedule: Q01DX009 (ip), vehicle: saline with Tween-80 100 % of control | dose: 88.0 mg/kg/injection, schedule: Q01DX009 (ip), vehicle: saline with Tween-80 90 % of control | dose: 132.0 mg/kg/injection, schedule: Q01DX009 (ip), vehicle: saline with Tween-80 86 % of control

COc1ccc(C=C2C(=O)N(c3ccccc3)C(=S)N(c3ccccc3)C2=O)cc1
inactive: dose: 50.0 mg/kg/injection, schedule: Q01DX005 (ip), vehicle: Klucel (hydroxypropylcellulose) (HPC) 94 % of control | dose: 100.0 mg/kg/injection, schedule: Q01DX005 (ip), vehicle: Klucel (hydroxypropylcellulose) (HPC) 90 % of control | dose: 200.0 mg/kg/injection, schedule: Q01DX005 (ip), vehicle: Klucel (hydroxypropylcellulose) (HPC) 88 % of control
